Results as given in patent publication US9682931B2, “Aryloyl(oxy or amino)pentafluorosulfanylbenzene compound, pharmaceutically acceptable salt thereof, and prodrugs thereof” (UBE INDUSTRIES, LTD., priority 2013, dated 2017).
Converted amounts (≈) assume the structure as drawn.

Tests used:
Format in all cases: cell-based
[1] = tested on: K562 human leukemia-derived cell lines; test: K562 human leukemia cell-proliferation inhibition test; conditions: Homo sapiens, K562, 72 h, K562 cells, 72 hours, viable cells counted with trypan blue; read-out: IC50
Procedure: K562 Human Leukemia Cell-Proliferation Inhibition Test
A cell proliferation inhibition test using K562 cells was performed. The activity in the presence of a test substance was compared to the activity in the presence of green tea polyphenol (GTP). The materials used in the test are as follows.
Cells: K562 human leukemia-derived cell lines (DS Pharma Biomedical Co., Ltd.)
Control Substance: Green Tea Polyphenols, abbreviation: GTP (LKT Laboratories, Inc.)
Culture solution: 10% equine serum-supplemented RPMI1640 medium
A test substance and a control substance were used by dissolving each of them in DMSO. To a solution (0.99 mL) containing K562 cells in a cell concentration of 20,000 cells/mL, a test substance solution or a control substance solution (0.01 mL) was added and the cells were cultured. Seventy two hours later, a part of the cells was stained with trypan blue and viable cells were counted by a counting chamber.
In Table 2, “IC50” denotes the sample concentration inhibiting 50% of cell proliferation

[2] = tested on: Streptococcus mutans NBRC13955; test: Antimicrobial test on oral bacteria, bactericidal effect test; conditions: for bactericidal action on Streptococcus mutans cells: one minute
Procedure: Antimicrobial Test on Oral Bacteria
1. Antimicrobial Action on Streptococcus mutans
The antimicrobial effect of two types of test substances (Compound 3 and Compound 7) on Streptococcus mutans was evaluated.
1) Preparation of Test Microbe
A microbe strain (Streptococcus mutans NBRC13955) cryopreserved was cultured in TSA medium at 36±1° C. for 18 to 24 hours. The cultured microbial cells were transferred to a fresh TSA medium and cultured at 36±1° C. for 18 to 24 hours. The grown colonies were scraped out and suspended in sterile ion-exchange water to prepare a solution having about 10^7 CFU/mL, which was used as a test microbe solution.
2) Preparation of Test Solution […]
3) Bactericidal Effect Test
From individual test solutions previously kept at 25±2° C., an aliquot (10 mL) was dispensed to centrifuge tubes of 50 mL in volume. To each of the centrifuge tubes, the test microbe solution (0.1 mL) was inoculated, mixed and allowed to react. After a predetermined reaction time, the resultant test solution (1 mL) was taken out. To this, 9 mL of a deactivator (SCDLP medium (manufactured by Eiken Chemical Co., Ltd.), which was confirmed as effective deactivator), was added to inactivate the bactericidal component of the test solution. The number of microbial cells in the resultant sample solution was determined. The solution obtained by carrying out the same procedure except that a sterile physiological saline was used in place of the test solution, was used as a control.
4) Determination of the Number of Microbial Cells
Using the sample solution as a stock solution, serial dilution was performed with a sterile physiological saline to obtain 10-fold serial dilutions. 1 mL of the sample solution or each of the dilutions was aseptically transferred to a petri dish, mixed with TSA medium (20 mL), solidified and cultured at 36±2° C. for 48 hours. After the culture, colonies grown on the medium were counted to obtain the number of test microbe cells per test solution (1 mL) (lower limit of quantification: 10 CFU/test solution (1 mL)).

[3] = tested on: Salmonella typhimurium TA98 strain and TA100 strain; test: Growth inhibitory action and bactericidal action on salmonella (preincubation method, with and without S9 mix); conditions: TA98 and TA100, presence or absence of S9 mix; for Bactericidal action: lowest concentration at which all bacterial cells were killed; for Growth inhibition: lowest concentration at which growth was inhibited
Procedure: Growth inhibitory action and bactericidal action on salmonella
1) Preparation of Test-Substance Solution
Test substances (compounds listed in Table 1) each were prepared by dissolving it in DMSO when used. Preparation was made in such a manner that the highest dose became 5000 μg/plate and the dose lower than this was prepared by a dilution method. In the table, reference numerals of individual compounds correspond to the numbers of the individual compounds synthesized in the above Examples (the same applies to the following Tables).
Salmonella typhimurium TA98 strain and TA100 strain were used.
These were supplied by Japan Bioassay Research Center, proliferated and examined for genetic properties and other properties in accordance with customary methods, in advance. After these strains were confirmed to have these properties, they are cryopreserved (−80° C.) with a DMSO-added medium; and thawed for use in each test.
3) A cryopreserved strain was thawed and inoculated in a 2.5% aqueous nutrient broth (OXOID No. 2) solution and cultured while shaking at 37° C. for 7 hours to obtain a cell suspension, which was subjected to tests.
A minimum glucose agar plate medium (Vital Media AMT-S, manufactured by Kyokuto Pharmaceutical Industrial Co., Ltd.) was used.
The top agar was prepared when used by blending an aqueous solution of 0.5 mM L-histidine and 0.5 mM D-(+)-biotin with an aqueous solution prepared by adding Bacto Agar (Difco) (0.6%) and sodium chloride (0.5%).
S9 was purchased from Kikkoman; whereas a cofactor was previously prepared in accordance with a method known in the art. They were mixed in a customary method to prepare S9 mix.
Using a test system containing S9 mix and a test system containing no S9 mix, a test was carried out in accordance with a preincubation method. As the dose selection, the highest dose was specified as […], which was then serially diluted in a common ratio of 2 to prepare a total of 15 doses to be used in the test.
To a sterile test tube, a test solution (0.1 mL) and 0.1 M Na-phosphate buffer or S9 mix (0.5 mL) and a cell suspension (0.1 mL) were sequentially dispensed. Pre-incubation was carried out at 37° C. for 20 minutes while shaking. After completion of the pre-incubation, top agar (2 mL) kept warm at 45° C. was added, mixed and placed on a minimum glucose agar plate medium. After solidification, the plate was turned upside down and cultured at 37° C. for 48 hours.
After completion of the culture, the state of microbial growth was observed by a stereomicroscope. After a precipitate on the plate was observed, revertant colonies were counted by the naked eye or a colony counter.
7) Criteria for Determination
Growth of both TA98 and TA100 strains was examined in the presence or absence of S9 mix. Among the resultant concentrations at which growth was inhibited, the lowest concentration was specified as the growth inhibitory concentration. Similarly, the bactericidal concentration was specified as the lowest concentration at which all bacterial cells were killed.

O=C(Nc1ccc(S(F)(F)(F)(F)F)cc1)c1cc(O)c(O)c(O)c1 [Compound 3, 4-(3,4,5-trihydroxybenzoylamino)pentafluorosulfanylbenzene]
IC50 [1]: 0.81 µg/mL (≈ 2.18 µM) | number of the cells reduced (fraction) ([2]; 0.01 w/v %, 5 minutes): 1/10 | number of test microbe cells ([2]; 0.01 w/v %, working time 1 min): 380,000 CFU/test solution (1 mL) | number of test microbe cells ([2]; 0.01 w/v %, working time 5 min): 34,000 CFU/test solution (1 mL) | bactericidal action on Streptococcus mutans cells ([2]; 0.05 w/v %): almost completely killed | number of test microbe cells ([2]; 0.05 w/v %, working time 1 min): <10 CFU/test solution (1 mL) | number of test microbe cells ([2]; 0.05 w/v %, working time 5 min): <10 CFU/test solution (1 mL) | Bactericidal action [3]: 625 μg/plate | Growth inhibition [3]: 19.5 μg/plate

O=C(Oc1ccc(S(F)(F)(F)(F)F)cc1)c1cc(O)c(O)c(O)c1 [Compound 7, 4-(3,4,5-trihydroxybenzoyloxy)pentafluorosulfanylbenzene]
IC50 [1]: 1.9 µg/mL (≈ 5.1 µM) | number of test microbe cells ([2]; 0.001 w/v %, working time 1 min): 460,000 CFU/test solution (1 mL) | number of test microbe cells ([2]; 0.001 w/v %, working time 5 min): 280,000 CFU/test solution (1 mL) | bactericidal action on Streptococcus mutans cells ([2]; 0.005 w/v %): almost completely killed | number of test microbe cells ([2]; 0.005 w/v %, working time 1 min): <10 CFU/test solution (1 mL) | number of test microbe cells ([2]; 0.005 w/v %, working time 5 min): <10 CFU/test solution (1 mL) | Bactericidal action [3]: 156 μg/plate | Growth inhibition [3]: 19.5 μg/plate
